Columns and labels:
[1] = test system: Orobanche cumana Wallr. seeds; test: Orobanche cumana seed germination test on glass fiber filter paper in petri dishes; assay type: in vivo; conditions: preconditioned Orobanche cumana seeds, N = 5 × 100 seeds
Protocol: The effect of compounds of Formula (I) on germination of Orobanche cumana Wallr. seeds was evaluated on glass fiber filter paper (GFFP) in petri dishes. Seeds were preconditioned at moisture and suitable temperature to become responsive to the specific chemical germination stimulants.
Test compounds were dissolved in DMSO (10,000 mg/L) and stored at room temperature in a desiccators with desiccants. The stock solutions were dissolved with deionised water to the appropriate final test concentration.
Seeds of O. cumana race ‘F’ were collected from sunflower fields in Manzanilla (Seville, Spain) in 2008 (seed lot IN153) and stored at room temperature. To separate seeds from heavy organic debris, a modified sucrose floatation technique as described by Hartman & Tanimonure (Plant Disease (1991), 75, p. 494) was applied. Seeds were filled into a separation funnel and stirred in water. When seeds floated to the surface, the water fraction containing heavy debris was discarded. Seeds were re-suspended in 2.5 M sucrose solution (specific gravity of 1.20) and heavy debris was allowed to settle down for 60 min. After removing debris, seeds were disinfected in 1% sodium hypochlorite solution and 0.025% (v/v) Tween 20 for 2 min. The seeds were decanted onto two layers of cheesecloth, rinsed with sterile deionised water and re-suspended in sterile deionised water. 2 mL of the seed suspension containing approximately 150-400 seeds was spread evenly on two layers of sterile glass fiber filter paper disc ([…]) in Petri dishes (Ø9 cm). After wetting the discs with 3 mL sterile deionised water, petri dishes were sealed with parafilm. Seeds were incubated for 10 days at 20° C. in the dark for seed conditioning. The upper disc with conditioned seeds was briefly dried, transferred to a petri dish lined with a dry GFFP disc, and wetted with 6 mL of the appropriate test solution. The compounds of Formula (I) were tested at concentrations of 0.01, 0.1, and 1 mg/L. The strigolactone analogue GR24 (commercially available as a mixture of isomers) was included as positive control and 0.01% DMSO as negative control. All treatments were tested in five replicates. Seeds were re-incubated at 20° C. in the dark and examined for germination 10 days later. The radicles of germinated seeds were stained for 5 min with blue ink (PELIKAN #4001, Germany) in 5% acetic acid according to Long et al. (Seed Science Research (2008), 18, p. 125). After staining, seeds were photographed using a camera stand mounted with a digital SLR camera (Canon EOS 5D). Germination of 100 seeds per replicate was evaluated on digital images. Seeds were considered germinated when the radicle protruded from the seed coat.

[2] = concentration 0.01 mg/L, control (0.01% DMSO): 1.4% germination
[3] = concentration 0.1 mg/L, control (0.01% DMSO): 1.4% germination
[4] = concentration 1 mg/L, control (0.01% DMSO): 1.4% germination
[5] = 1 mg/L, control (0.01% DMSO): 0.75% germination

melting point | SMILES | Germination (%) [1, 2] | Germination (%) [1, 3] | Germination (%) [1, 4] | Germination (%) [1, 5]
 | CC1=CC(OC(=O)NCc2ccccc2)OC1=O (stereo not shown) [reference compound] | 8.8% | 41.8% | 82.6% | 
 | CC1=CC(OC(=O)NCc2ccccc2)N(C2CC2)C1=O (stereo not shown) [Ia-6, (1-cyclopropyl-4-methyl-5-oxo-2H-pyrrol-2-yl) N-benzylcarbamate] |  |  |  | 76.4%
 | CC1=CC(O/C=C2/C(=O)OC3c4ccccc4CC23)OC1=O (stereo not shown) [reference compound] | 65% | 78.4% | 86.6% | 
 | CON1C(=O)C(C)=CC1OC(=O)NCc1ccccc1 (stereo not shown) [Ia-3, (1-methoxy-4-methyl-5-oxo-2H-pyrrol-2-yl) N-benzylcarbamate] |  |  |  | 44.8%
 | CC1=CC(OC(=O)NCc2ccccc2)N(CC(F)(F)F)C1=O (stereo not shown) [Ia-5, [4-methyl-5-oxo-1-(2,2,2-trifluoroethyl)-2H-pyrrol-2-yl]N-benzylcarbamate] |  |  |  | 16.2%
 | CC1=CC(OC(=O)NCc2ccccc2)N(C)C1=O (stereo not shown) [drawing 24] | 60.8% | 67.4% | 76.6% | 
106 °C | CC1=CC(OC(=O)NCc2ccccc2)N(C)C1=O (stereo not shown) [Ia-2, (1,4-dimethyl-5-oxo-2H-pyrrol-2-yl) N-benzylcarbamate] |  |  |  | 76.6%
 | COCN1C(=O)C(C)=CC1OC(=O)NCc1ccccc1 (stereo not shown) [Ia-1, [1-(methoxymethyl)-4-methyl-5-oxo-2H-pyrrol-2-yl]N-benzylcarbamate] |  |  |  | 86.8%
92 to 94 °C | C#CCN1C(=O)C(C)=CC1Oc1ccc(Br)cc1 (stereo not shown) |  |  |  | 
